This test deals with BDF1 mice, L1210 leukemia sc, survival T/C. Description: NCI In Vivo Anticancer Drug Screen. Data for tumor model L1210 Leukemia (subcutaneous) in B6D2F1 (BDF1) mice. Particulars: endpoint: median survival time, higher = longer survival. Summed up: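 Tumors were transplanted into mice, the animals were treated with compound, survival or tumor size was then measured, and treated values were divided by vehicle-control values.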

Where [1] appears, read: dose: 108.0 mg/kg/injection, schedule: Q01DX Z (sc), vehicle: methylcellulose (MC).
Setting [2] is: dose: 180.0 mg/kg/injection, schedule: Q01DX Z (sc), vehicle: methylcellulose (MC).
Setting [3] is: dose: 300.0 mg/kg/injection, schedule: Q01DX Z (sc), vehicle: methylcellulose (MC).
Where [4] appears, read: dose: 39.0 mg/kg/injection, schedule: Q01DX Z (sc), vehicle: methylcellulose (MC).
[5] abbreviates: dose: 65.0 mg/kg/injection, schedule: Q01DX Z (sc), vehicle: methylcellulose (MC).

Molecules are shown by their SMILES. Where “and” joins values, the source holds several entries; their conditions need not be identical. Equal entries are not always repeated. Inconclusive results and toxic doses are left out.

As for `CSc1ncnc2c1ncn2C1OC(CO)C(O)C1O` (configuration not stated), the T/C reads like this: (dose: 5.0 mg/kg/injection, schedule: Q#A X Z (sc), vehicle: water) 100 % of control; (dose: 8.4 mg/kg/injection, schedule: Q#A X Z (sc), vehicle: water) 100 % of control; (dose: 14.0 mg/kg/injection, schedule: Q01DX Z (sc), vehicle: water) 100 % of control; (dose: 14.0 mg/kg/injection, schedule: Q#A X Z (sc), vehicle: water) 105 % of control; (dose: 23.0 mg/kg/injection, schedule: Q01DX Z (sc), vehicle: water) 100 % of control and 105 % of control; (dose: 23.0 mg/kg/injection, schedule: Q02DX Z (sc), vehicle: water) 100 % of control. In addition, the T/C (dose: 23.0 mg/kg/injection, schedule: Q#A X Z (sc), vehicle: water) was 111 % of control; the T/C (dose: 39.0 mg/kg/injection, schedule: Q01DX Z (sc), vehicle: water) was 111 % of control; the T/C (dose: 39.0 mg/kg/injection, schedule: Q02DX Z (sc), vehicle: water) is 105 % of control; the T/C (dose: 39.0 mg/kg/injection, schedule: Q## X Z (sc), vehicle: water) is 111 % of control; the T/C (dose: 39.0 mg/kg/injection, schedule: Q#A X Z (sc), vehicle: water) is 111 % of control; the T/C (dose: 65.0 mg/kg/injection, schedule: Q01DX001 (sc), vehicle: water) was 100 % of control. Also, the T/C is, setting by setting: (dose: 65.0 mg/kg/injection, schedule: Q01DX Z (sc), vehicle: water) 111 % of control; (dose: 65.0 mg/kg/injection, schedule: Q02DX Z (sc), vehicle: water) 100 % of control; (dose: 65.0 mg/kg/injection, schedule: Q## X Z (sc), vehicle: water) 105 % of control; (dose: 108.0 mg/kg/injection, schedule: Q01DX001 (sc), vehicle: water) 111 % of control; (dose: 108.0 mg/kg/injection, schedule: Q01DX Z (sc), vehicle: water) 122 % of control; (dose: 108.0 mg/kg/injection, schedule: Q02DX Z (sc), vehicle: water) 111 % of control. The T/C is 111 % of control (dose: 108.0 mg/kg/injection, schedule: Q## X Z (sc), vehicle: water); 122 % of control (dose: 180.0 mg/kg/injection, schedule: Q01DX001 (sc), vehicle: water); 105 % of control (dose: 180.0 mg/kg/injection, schedule: Q02DX Z (sc), vehicle: water); 116 % of control (dose: 180.0 mg/kg/injection, schedule: Q## X Z (sc), vehicle: water); 122 % of control (dose: 300.0 mg/kg/injection, schedule: Q01DX001 (sc), vehicle: water); 122 % of control (dose: 300.0 mg/kg/injection, schedule: Q## X Z (sc), vehicle: water).
`OCC1OC(n2cnc3c(=S)nc[nH]c32)C(O)C1O` (configuration not stated): the T/C runs as follows: (dose: 38.9 mg/kg/injection, schedule: Q01DX Z (sc), vehicle: methylcellulose (MC)) 110 % of control; (dose: 50.0 mg/kg/injection, schedule: Q03HX024 (ip), vehicle: other) 150 % of control; (dose: 64.8 mg/kg/injection, schedule: Q01DX Z (sc), vehicle: methylcellulose (MC)) 155 % of control; (dose: 100.0 mg/kg/injection, schedule: Q03HX024 (ip), vehicle: other) 155 % of control; (dose: 100.0 mg/kg/injection, schedule: Q03HX024 (sc), vehicle: other) 155 % of control; under setting [1], 160 % of control. Besides, the T/C is 150 % of control under setting [2]; 161 % of control (dose: 200.0 mg/kg/injection, schedule: Q03HX024 (ip), vehicle: other); 155 % of control (dose: 200.0 mg/kg/injection, schedule: Q03HX024 (sc), vehicle: other); 150 % of control under setting [3]; 155 % of control (dose: 400.0 mg/kg/injection, schedule: Q01DX009 (ip), vehicle: other); 150 % of control (dose: 400.0 mg/kg/injection, schedule: Q01DX009 (sc), vehicle: other). The T/C (dose: 400.0 mg/kg/injection, schedule: Q03HX024 (ip), vehicle: other) is 155 % of control; the T/C (dose: 400.0 mg/kg/injection, schedule: Q03HX024 (sc), vehicle: other) is 105 % of control; the T/C (dose: 800.0 mg/kg/injection, schedule: Q01DX009 (ip), vehicle: other) is 155 % of control; the T/C (dose: 800.0 mg/kg/injection, schedule: Q01DX009 (sc), vehicle: other) was 161 % of control; the T/C (dose: 1600.0 mg/kg/injection, schedule: Q01DX009 (ip), vehicle: other) was 122 % of control; the T/C (dose: 1600.0 mg/kg/injection, schedule: Q01DX009 (sc), vehicle: other) was 155 % of control. In addition, the T/C was 111 % of control (dose: 3200.0 mg/kg/injection, schedule: Q01DX009 (sc), vehicle: other) and 150 % of control (dose: 3200.0 mg/kg/injection, schedule: Q04DX003 (sc), vehicle: other).
As to `NC(Cc1c[nH]c2ccc(N(CCCl)CCCl)cc12)C(=O)O` (configuration not stated), the T/C by setting is: (dose: 0.65 mg/kg/injection, schedule: Q01DX Z (sc), vehicle: methylcellulose (MC)) 105 % of control; (dose: 1.08 mg/kg/injection, schedule: Q01DX Z (sc), vehicle: methylcellulose (MC)) 111 % of control; (dose: 1.8 mg/kg/injection, schedule: Q01DX Z (sc), vehicle: methylcellulose (MC)) 123 % of control; (dose: 8.4 mg/kg/injection, schedule: Q01DX Z (sc), vehicle: methylcellulose (MC)) 117 % of control.
Regarding `C[C@]12C=CC(=O)C=C1CC[C@@H]1[C@@H]2CC[C@]2(C)OC(=O)CC[C@@H]12`, the T/C runs as follows: (dose: 23.0 mg/kg/injection, schedule: Q01DX Z (sc), vehicle: methylcellulose (MC)) 100 % of control; under setting [4], 100 % of control; under setting [5], 100 % of control; under setting [2], 100 % of control; under setting [3], 100 % of control; (dose: 500.0 mg/kg/injection, schedule: Q01DX Z (sc), vehicle: methylcellulose (MC)) 100 % of control.
Take `O=C(O)CS`: the T/C under setting [4] was 100 % of control, the T/C under setting [5] is 100 % of control and the T/C under setting [1] is 100 % of control.

The values above are taken from PubChem BioAssay AID250 (DTP/NCI, 2004).
